Laboratory results from ChEMBL document CHEMBL1201862, “PubChem BioAssay data set” (2004).
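Where inhibition never reached the appropriate level, the endpoint shown equals the highest concentration tested. Otherwise, values were interpolated linearly from a five-concentration, 48-hour dose response in 96-well plates. The concentration for 50% growth inhibition is given as GI50.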 Activity calls are given as the source filed them. Cut-off read from the data, not from the text of the source: active = GI50 up to about 1.1 µM and inactive = higher.

Assays:
Experiment in all cases: inhibition of tumour cell growth, NCI panel, 48 h
Hs-578T = system: Hs-578T
IGROV-1 = system: IGROV-1
T47D = system: T47D
RXF 393 = system: RXF 393
NCI-H522 = system: NCI-H522
MCF7 = system: MCF7
SNB-19 = system: SNB-19
NCI-H460 = system: NCI-H460
HCT-116 = system: HCT-116
TK-10 = system: TK-10
CCRF-CEM = system: CCRF-CEM
SK-MEL-5 = system: SK-MEL-5
MOLT-4 = system: MOLT-4
COLO 205 = system: COLO 205
CAKI-1 = system: CAKI-1
UO-31 = system: UO-31
SF-295 = system: SF-295
M19-MEL = system: M19-MEL
PC-3 = system: PC-3
UACC-62 = system: UACC-62

Compound | GI50 (Hs-578T) | GI50 (IGROV-1) | GI50 (T47D) | GI50 (RXF 393) | GI50 (NCI-H522) | GI50 (MCF7) | GI50 (SNB-19) | GI50 (NCI-H460) | GI50 (HCT-116) | GI50 (TK-10) | GI50 (CCRF-CEM) | GI50 (SK-MEL-5) | GI50 (MOLT-4) | GI50 (COLO 205) | GI50 (CAKI-1) | GI50 (UO-31) | GI50 (SF-295) | GI50 (M19-MEL) | GI50 (PC-3) | GI50 (UACC-62)
COc1ccc(OC)c2c1C(=O)C(Cl)=C(Cl)C2=O | 2.65 µM (inactive) | 15.5 µM (inactive) | 3.17 µM (inactive) | 1.85 µM (inactive) | 2.04 µM (inactive) | 2.6 µM (inactive) | > 46 µM (inactive) | 19.8 µM (inactive) | 1.72 µM (inactive) | 3.09 µM (inactive) | 14.6 µM (inactive) | 5.64 µM (inactive) | 2.51 µM (inactive) | 1.56 µM (inactive) | 2.56 µM (inactive) | 2.44 µM (inactive) | 20.1 µM (inactive) | 4.68 µM (inactive) | 14.5 µM (inactive) | 2.58 µM (inactive)
CC(C)Cc1ccc(C(C)CC2=CCC(CN(C)C)C2=O)cc1 (centres undefined) | 18.3 µM (inactive) | 9.51 µM (inactive) | 1.86 µM (inactive) | 5.78 µM (inactive) | 4.06 µM (inactive) | 1.17 µM (inactive) | 15.3 µM (inactive) | 31.7 µM (inactive) | 4.17 µM (inactive) | – | 2.4 µM (inactive) | 15.3 µM (inactive) | 2.34 µM (inactive) | 2.69 µM (inactive) | 1.84 µM (inactive) | 16.4 µM (inactive) | 17.1 µM (inactive) | 4.11 µM (inactive) | 14.9 µM (inactive) | 10 µM (inactive)
O=C(CCN1CCCCC1)N1CCc2c([nH]c3ccccc23)C1c1cccnc1 (centres undefined) | 66.4 µM (inactive) | > 92 µM (inactive) | 64.1 µM (inactive) | 28.7 µM (inactive) | 35.3 µM (inactive) | 99.3 µM (inactive) | > 100 µM (inactive) | 73.1 µM (inactive) | 61.8 µM (inactive) | 68.9 µM (inactive) | 57.4 µM (inactive) | 21.3 µM (inactive) | 47.1 µM (inactive) | 21.7 µM (inactive) | > 73.6 µM (inactive) | 38.3 µM (inactive) | 37.5 µM (inactive) | 21.2 µM (inactive) | 57 µM (inactive) | 20.7 µM (inactive)
C=CC(OCC)(OCC)OCC | – | > 100 µM (inactive) | – | > 100 µM (inactive) | > 100 µM (inactive) | – | > 100 µM (inactive) | > 100 µM (inactive) | 20.6 µM (inactive) | > 100 µM (inactive) | > 100 µM (inactive) | > 100 µM (inactive) | > 100 µM (inactive) | > 100 µM (inactive) | > 100 µM (inactive) | > 100 µM (inactive) | > 100 µM (inactive) | > 100 µM (inactive) | – | > 100 µM (inactive)
COC(=O)[C@H](C)[C@H]1CC[C@@](C)([C@H]2CC3C(C)(C)[C@H]4CCC(C)=C[C@H]4C[C@@]3(C)O2)OO1 (some centres undefined) | – | 5.69 µM (inactive) | – | > 10 µM (inactive) | 1.66 µM (inactive) | – | 14.8 µM (inactive) | 2.05 µM (inactive) | 10.5 µM (inactive) | 15.3 µM (inactive) | 4.2 µM (inactive) | 4.72 µM (inactive) | 7.13 µM (inactive) | 9.66 µM (inactive) | 5.13 µM (inactive) | 6.52 µM (inactive) | 14.7 µM (inactive) | 13.2 µM (inactive) | – | 13.6 µM (inactive)
NS(=O)(=O)c1ccc(NC(=O)Cc2nc3ccccc3s2)cc1 | – | 15.7 µM (inactive) | – | 18.6 µM (inactive) | 18.1 µM (inactive) | – | 23.5 µM (inactive) | 17.5 µM (inactive) | 16.6 µM (inactive) | 24.1 µM (inactive) | 13.4 µM (inactive) | 20.2 µM (inactive) | 20.1 µM (inactive) | 19.5 µM (inactive) | 16.5 µM (inactive) | 22.5 µM (inactive) | 19 µM (inactive) | 14.6 µM (inactive) | – | 15.7 µM (inactive)
COCc1cc2c(s1)C(=O)C1=C(C2=O)C2(C=C(Br)C(=O)C(Br)=C2)CCN1 | 9.53 µM (inactive) | 7.24 µM (inactive) | 3.06 µM (inactive) | 2.4 µM (inactive) | 2.39 µM (inactive) | 10.6 µM (inactive) | 18.3 µM (inactive) | 3.58 µM (inactive) | 1.41 µM (inactive) | 18.2 µM (inactive) | 3.01 µM (inactive) | 1.71 µM (inactive) | 2.43 µM (inactive) | 3.02 µM (inactive) | 20 µM (inactive) | 12.8 µM (inactive) | 6.05 µM (inactive) | 1.46 µM (inactive) | 3.15 µM (inactive) | 1.56 µM (inactive)
C/C(=N\NC(=S)NNC(=S)N(C)c1ccccc1)c1ccccn1 | 26 µM (inactive) | 0.764 µM (active) | 2.96 µM (inactive) | 4.19 µM (inactive) | – | 1.84 µM (inactive) | 2.7 µM (inactive) | 0.681 µM (active) | 0.673 µM (active) | 2.86 µM (inactive) | 0.399 µM (active) | – | 0.43 µM (active) | 0.673 µM (active) | 0.977 µM (active) | 0.577 µM (active) | 2.94 µM (inactive) | 0.547 µM (active) | – | –
COc1cc(OC)c(SSCCCCS(=O)O)c(OC)c1 | – | 21 µM (inactive) | – | 14.5 µM (inactive) | 6.65 µM (inactive) | – | 17.5 µM (inactive) | 17.1 µM (inactive) | 16.3 µM (inactive) | 21.3 µM (inactive) | 5.45 µM (inactive) | 10.4 µM (inactive) | 6.78 µM (inactive) | 17.5 µM (inactive) | > 10 µM (inactive) | 18.3 µM (inactive) | 13.6 µM (inactive) | 7.52 µM (inactive) | – | 13.7 µM (inactive)
